Experimental data from patent publication US6884798B2, “Fungicidal agent combinations” (Bayer CropScience AG, priority 2000, dated 2005).

Tested on: Sphaerotheca pannosa
Assay: Sphaerotheca test roses/curative
Assay type: in vivo, Sphaerotheca pannosa on roses
Details: infected roses sprayed three times at 7-day intervals; application rate 100 g/ha
Description: To produce a suitable preparation of active compound, a commercial formulation of active compound or active compound combination is mixed with water until the desired concentration is reached.
To test for curative activity, roses infected with Sphaerotheca pannosa are sprayed three times, at intervals of in each case 7 days, with the preparation of active compound at the stated application rate. The plants are placed in a greenhouse at temperatures between 15° C. and 23° C. and a relative atmospheric humidity of about 70%.
Evaluation is carried out 10 or 20 days after the third treatment. 0% means an efficacy which corresponds to that of the control, whereas an efficacy of 100% means that no infection is observed.

Q: Which results are given for `CC(C)(C)C(O)(CCc1ccc(Cl)cc1)Cn1cncn1` (centres unmarked) [tebuconazoles, tebuconazole]?
A: Efficacy in % 10 days after the third treatment: 28.6%; Efficacy in % 20 days after the third treatment: 26.6%
